Data on 36 compounds can be found in the C3SDB collision cross section collection.

Several values for one entry are separate records, joined by “and”; a condition that tells them apart may be missing. Identical values can stand only once.

For data set [1] the following is noted: instrument: DT, single field.
For data set [2] the following is noted: instrument: TW, calibrated with phosphatidylcholines (ESI+) and phosphatidylethanolamines (ESI-).
The conditions of data set [3]: instrument: TW, calibrated with phosphatidylcholines (ESI+) and phosphatidylethanolamines (ESI-). The source holds these as a separate data set.
For data set [4] the following is noted: instrument: DT, single field, calibrated with Agilent tune mix (Agilent).

For `CC/C=C\C/C=C\C/C=C\C/C=C\C/C=C\CCCCCC(=O)O[C@@H](CO)COC(=O)CCCCCCCCCCCC` [DG(35:5)], in data set [1] ([M+NH4]+), the “collision cross section (N2)” value is 265.29 Å² and 266.85 Å². Take `CCCCCCCCCCCCCC=CCC(=O)OC[C@H](CO[C@@H]1O[C@H](CO[C@H]2O[C@H](CO)[C@H](O)C(O)C2O)[C@H](O)C(O)C1O)OC(=O)CC=CCCCCCCCCCCCCC` (stereo partly specified) [DGDG(16:0/18:2)]: the “collision cross section (N2)” value is reported as 312.7 Å² in data set [2] ([M+CH3COO]-); 304.9 Å² in data set [2] ([M+Cl]-); 307.5 Å² in data set [2] ([M+NH4]+); 306.5 Å² in data set [2] ([M+Na]+); 301.9 Å² in data set [2] ([M-H]-). Consider `CCCCCCCCCCC=CCC=CCC(=O)OC[C@H](CO[C@@H]1O[C@H](CO[C@H]2O[C@H](CO)[C@H](O)C(O)C2O)[C@H](O)C(O)C1O)OC(=O)CC=CCC=CCCCCCCCCCC` (stereo partly specified) [DGDG(16:1/18:3)], for which the “collision cross section (N2)” value was 303.2 Å² in data set [2] ([M+Cl]-), 303.5 Å² in data set [2] ([M+NH4]+), 301.1 Å² in data set [2] ([M+Na]+) and 301.4 Å² in data set [2] ([M-H]-). Take `CCCCCCCC=CCC=CCC=CCC(=O)OC[C@H](CO[C@@H]1O[C@H](CO[C@H]2O[C@H](CO)[C@H](O)C(O)C2O)[C@H](O)C(O)C1O)OC(=O)CC=CCC=CCC=CCCCCCCC` (stereo partly specified) [DGDG(16:3/18:3)]: the “collision cross section (N2)” value in data set [2] ([M+CH3COO]-) was 305.8 Å²; in data set [2] ([M+Cl]-) it was 299.9 Å²; in data set [2] ([M+K]+) it was 295.2 Å²; in data set [2] ([M+NH4]+) it was 296.3 Å²; in data set [2] ([M+Na]+) it was 294.9 Å²; in data set [2] ([M-H]-) it was 296.1 Å². In the case of `CCCCCCCCC=CCC=CCC=CCC(=O)OC[C@H](CO[C@@H]1O[C@H](CO[C@H]2O[C@H](CO)[C@H](O)C(O)C2O)[C@H](O)C(O)C1O)OC(=O)CC=CCC=CCC=CCCCCCCCC` (stereo partly specified) [DGDG(18:3/18:3)], the “collision cross section (N2)” value is 313.7 Å² in data set [2] ([M+CH3COO]-); 305.9 Å² in data set [2] ([M+Cl]-); 302.5 Å² in data set [2] ([M+K]+); 303.2 Å² in data set [2] ([M+NH4]+); 301.9 Å² in data set [2] ([M+Na]+); 303.3 Å² in data set [2] ([M-H]-).

Take `CCCCCCCCCCCCCC=CCC(=O)OC[C@H](CO[C@@H]1O[C@H](CO[C@H]2O[C@H](CO)[C@H](O)C(O)C2O)[C@H](O)C(O)C1O)OC(=O)CC=CCCCCCCCCCCCCC` (stereo partly specified) [DGDG(34:2)]: the figures for the “collision cross section (N2)” value in data set [2] ([M+NH4]+) and in data set [2] ([M+Na]+) were 309 Å² and 305.2 Å², respectively.

As to `CCCCCCCCCCCCCCC=CCC(=O)O[C@H](COC(=O)CC=CCCCCCCCCCCCCCCC)CO[C@@H]1O[C@H](CO[C@H]2O[C@H](CO)[C@H](O)C(O)C2O)[C@H](O)C(O)C1O` (stereo partly specified) [DGDG(35:2)], the “collision cross section (N2)” value in data set [2] (M+NH4]+) is on record as 315 Å². With `CCCCCCCCCCCCCCCC(=O)OCC(CO[C@@H]1O[C@@H](C(=O)O)[C@H](O)[C@H](O)[C@H]1O)OC(=O)CCCCCCCCCCCCCCC` (stereo partly specified) [GlcADG(16:0/16:0)], the “collision cross section (N2)” value in data set [2] ([M+NH4]+) is 286 Å²; in data set [2] ([M+Na]+), 282.6 Å²; in data set [2] ([M-H]-), 267.9 Å². Regarding `CCCCCC/C=C\CCCCCCCCCC(=O)OC(COC(=O)CCCCCCCCCCCCCCC)CO[C@@H]1O[C@@H](C(=O)O)[C@H](O)[C@H](O)[C@H]1O` (stereo partly specified) [GlcADG(16:0/18:1)], the “collision cross section (N2)” value was 290.1 Å² in data set [2] ([M+NH4]+), 288.1 Å² in data set [2] ([M+Na]+) and 272.7 Å² in data set [2] ([M-H]-). For the compound `CCCCCCCCCCCCCCCC(=O)OCC(COP(=O)([O-])OCC(O)COC(=O)C(N)CCCC[NH3+])OC(=O)CCCCCCCCCCCCCCC` (stereo unspecified) [LysPG(16:0/16:0)], the “collision cross section (N2)” value in data set [2] ([M+H]+) amounted to 297 Å²; in data set [2] ([M-H]-), 291.5 Å². For the compound `CCCCCCCCCCCCCCC(=O)OCC(COP(=O)([O-])OCC(O)COC(=O)C(N)CCCC[NH3+])OC(=O)CCCCCCCCCCCC` (stereo unspecified) [LysPG(28:0)], in data set [2] ([M+H]+), the “collision cross section (N2)” value amounted to 284.7 Å². Same read-out and setting: the value for `CCCCCCCCCCCCCCC(=O)OCC(COP(=O)([O-])OCC(O)COC(=O)C(N)CCCC[NH3+])OC(=O)CCCCCCCCCCCCCC` (stereo unspecified) [LysPG(30:0)] was 290.4 Å²; that for `CCCCCC/C=C/CCCCCCCC(=O)OCC(COP(=O)([O-])OCC(O)COC(=O)C(N)CCCC[NH3+])OC(=O)CCCCCCCCCCCCC` (stereo unspecified) [LysPG(30:1)] was 287 Å²; that for `CCCCCCCCCCCCCCCC(=O)OC(COC(=O)CCCCCCCCCCCCCC)COP(=O)([O-])OCC(O)COC(=O)C(N)CCCC[NH3+]` (stereo unspecified) [LysPG(31:0)] was 293.9 Å². Still for that read-out and setting: then `CCCCCC/C=C/CCCCCCCC(=O)OCC(COP(=O)([O-])OCC(O)COC(=O)C(N)CCCC[NH3+])OC(=O)CCCCCCCCCCCCCCC` (stereo unspecified) [LysPG(32:1)], with 293.5 Å²; and `CCCCCC/C=C\CCCCCCCC(=O)OCC(COP(=O)([O-])OCC(O)COC(=O)C(N)CCCC[NH3+])OC(=O)CCCCCCC/C=C\CCCCCC` (stereo unspecified) [LysPG(32:2)], with 290.8 Å². Still for that read-out and setting: the value for `CCCCCCCCCCCCCCCCCCC(=O)OC(COC(=O)CCCCCCCCCCCCCC)COP(=O)([O-])OCC(O)COC(=O)C(N)CCCC[NH3+]` (stereo unspecified) [LysPG(34:0)] was 302.5 Å²; that for `CCCCCC/C=C\CCCCCCCCCC(=O)OCC(COP(=O)([O-])OCC(O)COC(=O)C(N)CCCC[NH3+])OC(=O)CCCCCCCCCCCCCCCC` (stereo unspecified) [LysPG(35:1)] was 303.5 Å².

As to `CCCCCCCCCCCCCCCCCCCCC(=O)O[C@H](COC(=O)CCCCCCCCCCC)COP(=O)(O)O` [PA(33:0)], in data set [2] ([M-H]-), the “collision cross section (N2)” value is reported as 254.5 Å². `CCCCCCCCCCCCCCCCCCCCCC(=O)OC[C@H](COP(=O)(O)O)OC(=O)CCCCCCCCCCC` [PA(34:0)]: the “collision cross section (N2)” value in data set [2] ([M-H]-) is 257.6 Å². As to `CCCCCCCCCCCCCCCCCCCCC(=O)O[C@H](COC(=O)CCCCCCCCCCCCC)COP(=O)(O)O` [PA(35:0)], the “collision cross section (N2)” value in data set [2] ([M-H]-) is reported as 261 Å². Same read-out and setting: then `CCCCCCCCCCCCCCCCC(=O)O[C@H](COC(=O)CCCCCCCCCCCCCC)COP(=O)(O)OC[C@@H](O)CO` [PG(16:0/16:0)], with 264.5 Å²; and `CCCCCCCCCCCCCCC(=O)O[C@H](COC(=O)CCCCCCCCCCCC)COP(=O)(O)OC[C@@H](O)CO` [PG(28:0)], with 253.1 Å².

For `CCCCCCC/C=C\CCCCCCCC(=O)O[C@H](COC(=O)CCCCCCCCCCCC)COP(=O)(O)OC[C@@H](O)CO` [PG(30:1)], the “collision cross section (N2)” value in data set [2] ([M-H]-) is listed as 257.1 Å². `CCCCCC/C=C\CCCCCCCC(=O)O[C@H](COC(=O)CCCCCCCCCCCCCC)COP(=O)(O)OC[C@@H](O)CO` [PG(31:1)]: the “collision cross section (N2)” value in data set [2] ([M-H]-) amounted to 260.2 Å². The same measure, in the same setting: the value for `CCCCCCCCCCCCCCCCCCCCC(=O)OC[C@H](COP(=O)(O)OC[C@@H](O)CO)OC(=O)CCCCCCCCCCC` [PG(33:0)] was 268.6 Å²; that for `CCCCC/C=C\CCCCCCCC(=O)OC[C@H](COP(=O)(O)OC[C@@H](O)CO)OC(=O)CCCCCCC/C=C\CCCCCCCC` [PG(33:2)] was 264.5 Å². Take `CCCCC/C=C\C/C=C\CCCCCCCCCCCC(=O)O[C@H](COC(=O)CCCCCCCCCCC)COP(=O)(O)OC[C@@H](O)CO` [PG(34:2)]: the “collision cross section (N2)” value amounted to 278.2 Å² in data set [3] ([M+Na]+); 267.4 Å² in data set [3] ([M-H]-); 268.1 Å² in data set [2] ([M-H]-); 283.3 Å² in data set [4] ([M+H]+); 284.9 Å² in data set [4] ([M+NH4]+); 268.7 Å² in data set [4] ([M-H]-).

Turning to `CCC/C=C\C/C=C\CCCCCCCC(=O)O[C@H](CO/C=C\CCCCCCCCCCCCC)COP(=O)(O)OC[C@@H](O)CO` [PG(p31:2)], the “collision cross section (N2)” value in data set [2] ([M-H]-) was found to be 256.8 Å². `CCCCCC/C=C\CCCCCCCC(=O)O[C@H](CO/C=C\CCCCCCCCCCCCCCCC)COP(=O)(O)OC[C@@H](O)CO` [PG(p34:1)]: the “collision cross section (N2)” value in data set [2] ([M-H]-) was 268.6 Å². For the compound `CCCCC/C=C\C/C=C\CCCCCCCC(=O)O[C@H](CO/C=C\CCCCCCCCCCCCCC)COP(=O)(O)OC[C@@H](O)CO` [PG(p34:2)], in data set [2] ([M-H]-), the “collision cross section (N2)” value is 266.6 Å². With `CCCCCCCCCCCCCCCC(=O)OC[C@H](COP(=O)(O)O[C@H]1C(O)C(O)C(O)[C@@H](O)C1O)OC(=O)CCCCCCCCCCCCCCC` (stereo partly specified) [PI(16:0/16:0)], the entries for the “collision cross section (N2)” value in data set [2] ([M+Na]+) and in data set [2] ([M-H]-) were 289.5 Å² and 280.9 Å², respectively. For the compound `CCCCCCCC/C=C\CCCCCCCC(=O)OC[C@@H](COC(=O)CCCCCCCCCCCC)OC(=O)CCCCCCCCCCCC` [TG(44:1)], the “collision cross section (N2)” value in data set [1] ([M+NH4]+) was 296.47 Å² and 298.81 Å² and 298.68 Å²; in data set [1] ([M+Na]+) it was 295.37 Å² and 297.74 Å². As to `CCCCCCCCCCCCCCCCCCCCCC(=O)OC[C@@H](COC(=O)CCCCCCCCCCC)OC(=O)CCCCCCCCCCC` [TG(46:0)], the “collision cross section (N2)” value in data set [1] ([M+Na]+) is 302.69 Å² and 303.56 Å².

`CCCC/C=C\C/C=C\CCCCCCCC(=O)O[C@@H](COC(=O)CCCCCCCCC/C=C\C/C=C\CCCCC)COC(=O)CCCCCCCCCCC` [TG(49:4)]: the “collision cross section (N2)” value in data set [1] ([M+NH4]+) came out at 307.56 Å². With `CCCCCCCCCCCCCCCCCCC(=O)OC[C@@H](COC(=O)CCCCCCCCCCC)OC(=O)CCCCCCCCCCCCCCCCCC` [TG(50:0)], the “collision cross section (N2)” value in data set [1] ([M+Na]+) is recorded as 316.28 Å².
